In patent US10555987B2, “GHRH agonists for the treatment of ischemic disorders” (UNIVERSITY OF MIAMI, priority 2012, dated 2020):
Non-standard residues stand in square brackets, D forms with d. Residues, ends and D or L forms follow the SMILES beside them. *: point of attachment. Desaminotyrosyl = O=C(CCc1ccc(O)cc1)*; hArg = N=C(N)NCCCC[C@H](N)C(=O)O; Agmatine = N=C(N)NCCCCN*; Nle = CCCC[C@H](N)C(=O)O; Orn = NCCC[C@H](N)C(=O)O; Abu = CC[C@H](N)C(=O)O; Aoc = NCCCCCCCC(=O)O

Biological target: T1, GHRH receptor (Homo sapiens, UniProt Q02643)
T1 sequence (Q02643 23-423): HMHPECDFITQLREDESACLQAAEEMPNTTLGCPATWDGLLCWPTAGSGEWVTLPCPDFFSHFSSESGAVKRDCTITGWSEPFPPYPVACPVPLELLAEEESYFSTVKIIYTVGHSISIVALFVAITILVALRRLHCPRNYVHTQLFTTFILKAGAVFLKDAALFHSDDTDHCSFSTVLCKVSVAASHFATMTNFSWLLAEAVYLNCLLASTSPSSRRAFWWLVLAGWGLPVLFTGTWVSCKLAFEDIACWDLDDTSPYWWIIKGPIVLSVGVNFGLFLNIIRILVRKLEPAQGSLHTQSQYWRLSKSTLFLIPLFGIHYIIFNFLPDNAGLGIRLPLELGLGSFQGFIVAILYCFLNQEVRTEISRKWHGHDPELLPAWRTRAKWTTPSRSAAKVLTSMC
Assay: GHRH receptor binding, competition with 125I-labeled [His1,Nle27]hGHRH(1-32)NH2, human pituitary membrane homogenates (Table 6)
Set-up: Normal human pituitaries were purchased from the National Hormone and Peptide Program; tissue National Hormone and Peptide Program (A.F. Parlow, Harbor-UCLA Medical Center, Torrance, Calif.); host or cells: normal human pituitary, membrane fraction
Conditions: for Relative affinity (Binding potency) vs GHRH: GHRH(1-29) = 1, Table 6; for Relative affinity (Binding potency) vs JI-38: JI-38 = 1, Table 6
Excerpt: Normal human pituitaries were purchased from the National Hormone and Peptide Program (A.F. Parlow, Los Angeles, County Harbor-UCLA Medical Center, Torrance, Calif.).

| Compound | Relative affinity (Binding potency) vs GHRH | Relative affinity (Binding potency) vs JI-38 |
| --- | --- | --- |
| CCCC[C@H](NC(=O)[C@@H](NC(=O)[C@H](CC(=O)O)NC(=O)[C@H](CCC(N)=O)NC(=O)[C@H](CC(C)C)NC(=O)[C@H](CC(C)C)NC(=O)[C@H](CCCN)NC(=O)[C@H](CCCNC(=N)N)NC(=O)[C@H](C)NC(=O)[C@H](CO)NC(=O)[C@H](CC(C)C)NC(=O)[C@H](CCC(N)=O)NC(=O)[C@H](CC)NC(=O)[C@H](CC(C)C)NC(=O)[C@@H](NC(=O)[C@H](CCCN)NC(=O)[C@H](CCCNC(=N)N)NC(=O)[C@H](Cc1ccc(O)cc1)NC(=O)[C@H](CO)NC(=O)[C@H](C)NC(=O)[C@@H](NC(=O)[C@H](Cc1ccccc1)NC(=O)[C@@H](NC(=O)[C@H](C)NC(=O)[C@H](CC(=O)O)NC(=O)[C@@H](C)NC(=O)CCc1ccc(O)cc1)[C@@H](C)CC)[C@@H](C)O)C(C)C)[C@@H](C)CC)C(=O)N[C@@H](CC(=O)O)C(=O)N[C@@H](CCCNC(=N)N)C(=O)N[C@@H](CCCCNC(=N)N)C(N)=O [Peptide P-23256, [Dat^1, D-Ala^2, Ala^8, Orn^12, Abu^15, Orn^21, Nle^27, Asp^28, Har^30]hGHRH(1-30)NH2] (Desaminotyrosyl-[dA]DAIFTASYR[Orn]VL[Abu]QLSAR[Orn]LLQDI[Nle]DR[hArg]-NH2) | 148.0 | 48.7 |
| CCCC[C@H](NC(=O)[C@@H](NC(=O)[C@H](CC(=O)O)NC(=O)[C@H](CCC(N)=O)NC(=O)[C@H](CC(C)C)NC(=O)[C@H](CC(C)C)NC(=O)[C@H](CCCN)NC(=O)[C@H](CCCNC(=N)N)NC(=O)[C@H](C)NC(=O)[C@H](CO)NC(=O)[C@H](CC(C)C)NC(=O)[C@H](CCC(N)=O)NC(=O)[C@H](CC)NC(=O)[C@H](CC(C)C)NC(=O)[C@@H](NC(=O)[C@H](CCCN)NC(=O)[C@H](CCCNC(=N)N)NC(=O)[C@H](Cc1ccc(O)cc1)NC(=O)[C@H](CO)NC(=O)[C@@H](NC(=O)[C@@H](NC(=O)[C@H](Cc1ccccc1)NC(=O)[C@@H](NC(=O)[C@H](C)NC(=O)[C@H](CC(=O)O)NC(=O)[C@@H](C)NC(=O)CCc1ccc(O)cc1)[C@@H](C)CC)[C@@H](C)O)[C@@H](C)O)C(C)C)[C@@H](C)CC)C(=O)N[C@@H](CC(=O)O)C(=O)N[C@@H](CCCNC(=N)N)C(=O)N[C@@H](CCCCNC(=N)N)C(N)=O [Peptide P-23254, [Dat^1, D-Ala^2, Thr^8, Orn^12, Abu^15, Orn^21, Nle^27, Asp^28, Har^30]hGHRH(1-30)NH2] (Desaminotyrosyl-[dA]DAIFTTSYR[Orn]VL[Abu]QLSAR[Orn]LLQDI[Nle]DR[hArg]-NH2) | 84.5 | 27.8 |
| CCCC[C@H](NC(=O)[C@@H](NC(=O)[C@H](CC(=O)O)NC(=O)[C@H](CCC(N)=O)NC(=O)[C@H](CC(C)C)NC(=O)[C@H](CC(C)C)NC(=O)[C@H](CCCN)NC(=O)[C@H](CCCNC(=N)N)NC(=O)[C@H](C)NC(=O)[C@H](CO)NC(=O)[C@H](CC(C)C)NC(=O)[C@H](CCC(N)=O)NC(=O)[C@H](CC)NC(=O)[C@H](CC(C)C)NC(=O)[C@@H](NC(=O)[C@H](CCCN)NC(=O)[C@H](CCCNC(=N)N)NC(=O)[C@H](Cc1ccc(O)cc1)NC(=O)[C@H](CO)NC(=O)[C@H](CC(N)=O)NC(=O)[C@@H](NC(=O)[C@H](Cc1ccccc1)NC(=O)[C@@H](NC(=O)[C@H](C)NC(=O)[C@H](CC(=O)O)NC(=O)[C@H](C)NC(=O)CCc1ccc(O)cc1)[C@@H](C)CC)[C@@H](C)O)C(C)C)[C@@H](C)CC)C(=O)N[C@@H](CC(=O)O)C(=O)NCCCCNC(=N)N [JI-34, reference compound] (Desaminotyrosyl-ADAIFTNSYR[Orn]VL[Abu]QLSAR[Orn]LLQDI[Nle]D-Agmatine; N-terminus and C-terminus assumed) | 4.32 | – |

More lines, now with the values ahead:

| Relative affinity (Binding potency) vs GHRH | Relative affinity (Binding potency) vs JI-38 | Compound |
| --- | --- | --- |
| 42.3 | 13.9 | CCCC[C@H](NC(=O)[C@@H](NC(=O)[C@H](CC(=O)O)NC(=O)[C@H](CCC(N)=O)NC(=O)[C@H](CC(C)C)NC(=O)[C@H](CC(C)C)NC(=O)[C@H](CCCN)NC(=O)[C@H](CCCNC(=N)N)NC(=O)[C@H](C)NC(=O)[C@H](CO)NC(=O)[C@H](CC(C)C)NC(=O)[C@H](CCC(N)=O)NC(=O)[C@H](CC)NC(=O)[C@H](CC(C)C)NC(=O)[C@@H](NC(=O)[C@H](CCCN)NC(=O)[C@H](CCCNC(=N)N)NC(=O)[C@H](Cc1ccc(O)cc1)NC(=O)[C@H](CO)NC(=O)[C@H](CC(N)=O)NC(=O)[C@@H](NC(=O)[C@H](Cc1ccccc1)NC(=O)[C@@H](NC(=O)[C@H](C)NC(=O)[C@H](CC(=O)O)NC(=O)[C@@H](C)NC(=O)CCc1ccc(O)cc1)[C@@H](C)CC)[C@@H](C)O)C(C)C)[C@@H](C)CC)C(=O)N[C@@H](CC(=O)O)C(=O)N[C@@H](CCCNC(=N)N)C(=O)N[C@@H](CCCCNC(=N)N)C(N)=O [Peptide P-23252, [Dat^1-D-Ala^2, Orn^12, Abu^15, Orn^21, Nle^27, Asp^28, Har^30]hGHRH(1-30)NH^2] (Desaminotyrosyl-[dA]DAIFTNSYR[Orn]VL[Abu]QLSAR[Orn]LLQDI[Nle]DR[hArg]-NH2) |
| 74.0 | 24.4 | CCCC[C@H](NC(=O)[C@@H](NC(=O)[C@H](CC(=O)O)NC(=O)[C@H](CCC(N)=O)NC(=O)[C@H](CC(C)C)NC(=O)[C@H](CC(C)C)NC(=O)[C@H](CCCN)NC(=O)[C@H](CCCNC(=N)N)NC(=O)[C@H](C)NC(=O)[C@H](CO)NC(=O)[C@H](CC(C)C)NC(=O)[C@H](CCC(N)=O)NC(=O)[C@H](CC)NC(=O)[C@H](CC(C)C)NC(=O)[C@@H](NC(=O)[C@H](CCCN)NC(=O)[C@H](CCCNC(=N)N)NC(=O)[C@H](Cc1ccc(O)cc1)NC(=O)[C@H](CO)NC(=O)[C@H](CCC(N)=O)NC(=O)[C@@H](NC(=O)[C@H](Cc1ccccc1)NC(=O)[C@@H](NC(=O)[C@H](C)NC(=O)[C@H](CC(=O)O)NC(=O)[C@@H](C)NC(=O)CCc1ccc(O)cc1)[C@@H](C)CC)[C@@H](C)O)C(C)C)[C@@H](C)CC)C(=O)N[C@@H](CC(=O)O)C(=O)N[C@@H](CCCNC(=N)N)C(=O)NCCCCCCCC(N)=O [Peptide P-21304, [Dat^1, D-Ala^2, Gln^8, Orn^12, Abu^15, Orn^21, Nle^27, Asp^28, Amc^30]hGHRH(1-30)NH2] (Desaminotyrosyl-[dA]DAIFTQSYR[Orn]VL[Abu]QLSAR[Orn]LLQDI[Nle]DR[Aoc]-NH2) |
